Test results: patent US7361637B2, “Hypotensors” (Protein Express Co., Ltd., priority 2000, dated 2008)
Several values for one entry are separate records, joined by “and”; a condition that tells them apart may be missing. Equal entries are not always repeated.

Legend:
Type in all cases: in vivo, rat
SHR male rats = test: Hypotensive effect: blood pressure by carotid cannula and pressure transducer after administration to SHR; details: for duration of the hypotensive effect from the administration / sustained hypotension at the highest: 1 mg/kg via cannula from external carotid artery
Description: A group comprising three SHR male rats (12˜14 weeks age; body weight: 258˜310 g) that are pathological model animals of hypertension was used. Ab mix prepared in Example 1, P mix prepared in Example 2 and dissolved in a physiological saline, and anti-renin neutralizing antibody and captopril, which were the drugs used for comparative study, were intravenously administered at the dose of 0.44 mg/kg, 0.6 mg/kg, 0.12 mg/kg and 100 mg/kg, respectively. Measurement of blood pressure was carried out in such a manner that a cannula inserted into common carotid artery and external carotid artery was connected to a pressure transducer (P23XL; Gould Electronics) and introduced into a pressure processor signal conditioner (Gould Electronics), followed by carrying out measurement every ten minutes until 1 hour from administration of the test substance and every one hour thereafter and the data were recorded on a thermal array recorder (RS 3400; Gould Electronics). […]
A test was carried out for p 1 (pf 1-11), p 2 (pf 5-19) and p 3 (pf 27-41) prepared in Example 2 in the same manner as in Experimental Example 1 using 2 or 4 cases of SHR. The result was that, in the case of administration of 2 mg/kg of p 1, a transient hypertensive action of around 6% was noted immediately after administration, that recovered after 5 minutes from administration, then a hypotensive gradually took place thereafter to an extent of 6% at the highest and a sustained effect was confirmed until 24th hour. […] In the case of administration of 2 mg/kg of p 2, a transient hypotension of around 35% was noted immediately after administration, it recovered at 5 minutes after administration and, after that, a sustained hypotensive action was confirmed until 24th hour to an extent of around 6% at the highest. […] In the case of administration of 10 mg/kg, a hypotension of 7% was noted after 2 hours and, until 24th hour, a sustained hypotensive action where 11% was the highest was confirmed. […]

SHR [1] = test: Weight of heart and kidney after 14 days of administration to SHR; details: 1.6 mg/kg intravenously once daily for 14 days
Description: (§1) The p 1c (pf 5-11) prepared in Example 2 was intravenously administered once daily for consecutive 14 days at the dose of 1.6 mg/kg to a group comprising 4 SHRs. On the 14th day, the rats were killed by bleeding, followed by excising heart and kidney to measure their weights. The result is shown in Table 1 in terms of weight of the organ per 100 g of body weight.

SHR [2] = test: Weight of arteries after 14 days of administration to SHR; details: 1.6 mg/kg intravenously once daily for 14 days
Description: as §1, with “weight. […] Weight of each artery was calculated in terms of weight per each area, followed by further converting the calculated value into the value per body weight of each rat and the results were compared and shown in Table 2.” for “weight.”

p 2a: rat prorenin profragment peptide pf 12-19 (SEQ ID NO: 13) (LLKKMPSV; listed as Rattus norvegicus)
duration of the hypotensive effect from the administration (SHR male rats): ≥ 12 h
sustained hypotension at the highest (SHR male rats; at 5~8 hours after administration): 11%
sustained hypotension at the highest until 24 hours (SHR male rats; SHR, 1 mg/kg intravenously): 14%
transient hypertension immediately after administration (SHR male rats; SHR, 1 mg/kg intravenously): 6%

p 1c: rat prorenin profragment peptide pf 5-11 (SEQ ID NO: 12) (TASFGRI; listed as Rattus norvegicus)
sustained hypotension at the highest until 24th hour (SHR male rats; SHR, 10 mg/kg intravenously): 16%
transient hypertension immediately after administration (SHR male rats; SHR, 10 mg/kg intravenously): 21%
Weight of Organ, Heart, Mean Value (SHR [1]): 0.39 g/100 g body weight
Weight of Organ, Left Kidney, Mean Value (SHR [1]): 0.35 g/100 g body weight
Weight of Organ, Right Kidney, Mean Value (SHR [1]): 0.34 g/100 g body weight
Weight of Organ, Heart, individual rats (SHR [1]; 1.6 mg/kg): 0.37 g/100 g body weight and 0.4 g/100 g body weight (2×) and 0.39 g/100 g body weight
Weight of Organ, Left Kidney, individual rats (SHR [1]; 1.6 mg/kg): 0.34 g/100 g body weight and 0.35 g/100 g body weight (3×)
Weight of Organ, Right Kidney, individual rats (SHR [1]; 1.6 mg/kg): 0.34 g/100 g body weight and 0.35 g/100 g body weight (2×) and 0.33 g/100 g body weight
effect on hypertrophy of heart and kidney (SHR [1]; compared with physiological saline): suppresses hypertrophy of heart and kidney
Weight of Artery, Femoral Artery, Mean Value (SHR [2]): 0.00089 mg/mm^2/g body weight
Weight of Artery, Pulmonary Artery, Mean Value (SHR [2]): 0.00081 mg/mm^2/g body weight
Weight of Artery, Superior Mesenteric Artery, Mean Value (SHR [2]): 0.00096 mg/mm^2/g body weight
Weight of Artery, Femoral Artery, individual rats (SHR [2]; 1.6 mg/kg): 0.00068 mg/mm^2/g body weight and 0.00094 mg/mm^2/g body weight and 0.00106 mg/mm^2/g body weight and 0.00087 mg/mm^2/g body weight
Weight of Artery, Pulmonary Artery, individual rats (SHR [2]; 1.6 mg/kg): 0.00067 mg/mm^2/g body weight and 0.00087 mg/mm^2/g body weight and 0.00088 mg/mm^2/g body weight and 0.00082 mg/mm^2/g body weight
Weight of Artery, Superior Mesenteric Artery, individual rats (SHR [2]; 1.6 mg/kg): 0.00094 mg/mm^2/g body weight and 0.00095 mg/mm^2/g body weight and 0.00096 mg/mm^2/g body weight and 0.001 mg/mm^2/g body weight
effect on thickening of artery (remodeling of blood vessel) (SHR [2]; compared with control group): suppresses the thickening of artery

p 2b: rat prorenin profragment peptide pf 11-15 (SEQ ID NO: 14) (ILLKK; listed as Rattus norvegicus)
sustained hypotension at the highest until 24 hours (SHR male rats; SHR, 1 mg/kg intravenously): The same effect was achieved

p 1b: rat prorenin profragment peptide pf 1-7 (SEQ ID NO: 11) (LPTDTAS; listed as Rattus norvegicus)
sustained hypotension at the highest until 24th hour (SHR male rats; SHR, 10 mg/kg intravenously): 13%
transient hypertension immediately after administration (SHR male rats; SHR, 10 mg/kg intravenously): 17%

D-His-Pro-Phe-His-Leu-ψ-[CH2NH]-Leu-Val-Tyr [H 6137, reference compound]
duration of the hypotensive effect from the administration (SHR male rats): tendency of disappearance of the effect
sustained hypotension at the highest (SHR male rats; at 3~8 hours after administration): 9%

p 1: rat prorenin profragment peptide pf 1-11 (SEQ ID NO: 9) (LPTDTASFGRI; listed as Rattus norvegicus)
transient hypertension immediately after administration (SHR male rats; SHR, 2 mg/kg intravenously): around 6%
sustained hypotension at the highest after recovery of the transient change (SHR male rats; SHR, 2 mg/kg intravenously, until 24th hour): 6%
hypotension at 6 hours after administration (SHR male rats; SHR, 10 mg/kg intravenously): about 7%

C[C@H](CS)C(=O)N1CCC[C@H]1C(=O)O [captopril, reference compound]
hypotensive action at the 24th hour (completion of the experiment) (SHR male rats; SHR, 100 mg/kg intravenously): no hypotensive action was noted
maximum hypotension (at the highest) until the 6th hour from the administration (SHR male rats; SHR, 100 mg/kg intravenously): 31%

p 1a: rat prorenin profragment peptide pf 1-4 (SEQ ID NO: 10) (LPTD; listed as Rattus norvegicus)
sustained hypotension at the highest until 24th hour (SHR male rats; SHR, 10 mg/kg intravenously): 13%
transient hypertension immediately after administration (SHR male rats; SHR, 10 mg/kg intravenously): 13%
